# Assay: In vitro inhibitory activity against ADP-induced human platelet aggregation
row,SMILES,IC50 [µM]
1,O=c1cc(N2CCOCC2)oc2cc(OCc3cccc4ccccc34)ccc12 [2-Morpholin-4-yl-7-(naphthalen-1-ylmethoxy)-chromen-4-one],41
2,O=c1cc(N2CCOCC2)oc2cc(OCc3ccccn3)ccc12 [2-Morpholin-4-yl-7-(pyridin-2-ylmethoxy)-chromen-4-one],53
3,"Cc1c(N2CCOCC2)oc2c(C)c(OCc3cccc4ccccc34)ccc2c1=O [3,8-Dimethyl-2-morpholin-4-yl-7-(naphthalen-1-ylmethoxy)-chromen-4-one]",> 75
4,"Cc1cc2c(=O)cc(N3CCOCC3)oc2c(C)c1OCCN1CCN(C)CC1 [6,8-Dimethyl-7-[2-(4-methyl-piperazin-1-yl)-ethoxy]-2-morpholin-4-yl-chromen-4-one]",1.4
5,Cc1c(OCc2nnnn2C2CCCCC2)ccc2c(=O)cc(N3CCOCC3)oc12 [7-(1-Cyclohexyl-1H-tetrazol-5-ylmethoxy)-8-methyl-2-morpholin-4-yl-chromen-4-one],12
6,Cc1c(OCc2nnnn2C(C)(C)C)ccc2c(=O)cc(N3CCOCC3)oc12 [7-(1-tert-Butyl-1H-tetrazol-5-ylmethoxy)-8-methyl-2-morpholin-4-yl-chromen-4-one],2
7,Cc1c(OCCN2CCCCCC2)ccc2c(=O)cc(N3CCOCC3)oc12 [7-(2-Azepan-1-yl-ethoxy)-8-methyl-2-morpholin-4-yl-chromen-4-one],3
8,CCN(CC)CCOc1ccc2c(=O)cc(N3CCOCC3)oc2c1C [7-(2-Diethylamino-ethoxy)-8-methyl-2-morpholin-4-yl-chromen-4-one],2.6
9,COc1ccccc1COc1ccc2c(=O)cc(N3CCOCC3)oc2c1C [7-(2-Methoxy-benzyloxy)-8-methyl-2-morpholin-4-yl-chromen-4-one],44
10,COCCOc1ccc2c(=O)cc(N3CCOCC3)oc2c1C [7-(2-Methoxy-ethoxy)-8-methyl-2-morpholin-4-yl-chromen-4-one],7
11,COc1ccc(COc2ccc3c(=O)cc(N4CCOCC4)oc3c2C)cc1 [7-(4-Methoxy-benzyloxy)-8-methyl-2-morpholin-4-yl-chromen-4-one],47
12,C=CCOc1ccc2c(=O)cc(N3CCOCC3)oc2c1C [7-Allyloxy-8-methyl-2-morpholin-4-yl-chromen-4-one],58
13,"Cc1c(N2CCOCC2)oc2c(C)c(OCc3ccccc3)ccc2c1=O [7-Benzyloxy-3,8-dimethyl-2-morpholin-4-yl-chromen-4-one]",> 75
14,Cc1c(OCc2ccccc2)ccc2c(=O)cc(N3CCOCC3)oc12 [7-Benzyloxy-8-methyl-2-morpholin-4-yl-chromen-4-one],40
15,COc1ccc2c(=O)cc(N3CCOCC3)oc2c1C [7-Methoxy-8-methyl-2-morpholin-4-yl-chromen-4-one],41
16,Cc1c(OCCN2CCN(Cc3ccccc3)CC2)ccc2c(=O)cc(N3CCOCC3)oc12 [7-[2-(4-Benzyl-piperazin-1-yl)-ethoxy]-8-methyl-2-morpholin-4-yl-chromen-4-one],11
17,CCCc1c(OCCN2CCN(C)CC2)ccc2c(=O)cc(N3CCOCC3)oc12 [7-[2-(4-Methyl-piperazin-1-yl)-ethoxy]-2-morpholin-4-yl-8-propyl-chromen-4-one],69
18,C=Cc1c(OCCN2CCN(C)CC2)ccc2c(=O)cc(N3CCOCC3)oc12 [7-[2-(4-Methyl-piperazin-1-yl)-ethoxy]-2-morpholin-4-yl-8-vinyl-chromen-4-one],3
19,CN1CCN(CCOc2ccc3c(=O)cc(N4CCOCC4)oc3c2)CC1 [7-[2-(4-Methyl-piperazin-1-yl)-ethoxy]-2-morpholin-4-yl-chromen-4-one],35
20,Cc1c(OCCN2CCN(C)CC2)ccc2c(=O)cc(N3CCOCC3)oc12 [7-[2-(4-methylpiperazin-1-yl)ethoxy]-8-methyl-2-morpholinyl chromone],0.85
21,CCN(CCOc1ccc2c(=O)cc(N3CCOCC3)oc2c1C)c1ccccc1 [7-[2-(Ethyl-phenyl-amino)-ethoxy]-8-methyl-2-morpholin-4-yl-chromen-4-one],43

row,SMILES,IC50 [µM]
1,Cc1c(OCCN2CCN(CCO)CC2)ccc2c(=O)cc(N3CCOCC3)oc12 [7-{2-[4-(2-Hydroxy-ethyl)-piperazin-1-yl]-ethoxy}-8-methyl-2-morpholin-4-yl-chromen-4-one],12
2,CCN(CCO)CCOc1ccc2c(=O)cc(N3CCOCC3)oc2c1C [7-{2-[Ethyl-(2-hydroxy-ethyl)-amino]-ethoxy}-8-methyl-2-morpholin-4-yl-chromen-4-one],14
3,C=CCc1c(OCCN2CCN(C)CC2)ccc2c(=O)cc(N3CCOCC3)oc12 [8-Allyl-7-[2-(4-methyl-piperazin-1-yl)-ethoxy]-2-morpholin-4-yl-chromen-4-one],8.9
4,CCc1c(OCCN2CCN(C)CC2)ccc2c(=O)cc(N3CCOCC3)oc12 [8-Ethyl-7-[2-(4-methyl-piperazin-1-yl)-ethoxy]-2-morpholin-4-yl-chromen-4-one],4
5,Cc1c(OCc2nnnn2-c2ccccc2)ccc2c(=O)cc(N3CCOCC3)oc12 [8-Methyl-2-morpholin-4-yl-7-(1-phenyl-1H-tetrazol-5-ylmethoxy)-chromen-4-one],8
6,Cc1c(OCC(=O)c2ccccc2)ccc2c(=O)cc(N3CCOCC3)oc12 [8-Methyl-2-morpholin-4-yl-7-(2-oxo-2-phenyl-ethoxy)-chromen-4-one],43
7,CC(=O)COc1ccc2c(=O)cc(N3CCOCC3)oc2c1C [8-Methyl-2-morpholin-4-yl-7-(2-oxo-propoxy)-chromen-4-one],12
8,Cc1c(OCCN2CCNCC2)ccc2c(=O)cc(N3CCOCC3)oc12 [8-Methyl-2-morpholin-4-yl-7-(2-piperazin-1-yl-ethoxy)-chromen-4-one],4
9,Cc1c(OCCN2CCCCC2)ccc2c(=O)cc(N3CCOCC3)oc12 [8-Methyl-2-morpholin-4-yl-7-(2-piperidin-1-yl-ethoxy)-chromen-4-one],5
10,Cc1c(OCCN2CCCC2)ccc2c(=O)cc(N3CCOCC3)oc12 [8-Methyl-2-morpholin-4-yl-7-(2-pyrrolidin-1-yl-ethoxy)-chromen-4-one],4
11,Cc1c(OCCN2CCSCC2)ccc2c(=O)cc(N3CCOCC3)oc12 [8-Methyl-2-morpholin-4-yl-7-(2-thiomorpholin-4-yl-ethoxy)-chromen-4-one],4.3
12,Cc1c(OCc2cccc3ccccc23)ccc2c(=O)cc(N3CCOCC3)oc12 [8-Methyl-2-morpholin-4-yl-7-(naphthalen-1-ylmethoxy)-chromen-4-one],13
13,Cc1c(OCc2ccc3ccccc3c2)ccc2c(=O)cc(N3CCOCC3)oc12 [8-Methyl-2-morpholin-4-yl-7-(naphthalen-2-ylmethoxy)-chromen-4-one],65
14,Cc1c(OCc2ccccn2)ccc2c(=O)cc(N3CCOCC3)oc12 [8-Methyl-2-morpholin-4-yl-7-(pyridin-2-ylmethoxy)-chromen-4-one],19
15,Cc1c(OCc2cccnc2)ccc2c(=O)cc(N3CCOCC3)oc12 [8-Methyl-2-morpholin-4-yl-7-(pyridin-3-ylmethoxy)-chromen-4-one],4
16,Cc1c(OCCN2CCN(c3ccccc3)CC2)ccc2c(=O)cc(N3CCOCC3)oc12 [8-Methyl-2-morpholin-4-yl-7-[2-(4-phenyl-piperazin-1-yl)-ethoxy]-chromen-4-one],> 75
17,Cc1c(OCc2nnnn2C)ccc2c(=O)cc(N3CCOCC3)oc12 [8-Methyl-7-(1-methyl-1H-tetrazol-5-ylmethoxy)-2-morpholin-4-yl-chromen-4-one],2.8
18,CSCCOc1ccc2c(=O)cc(N3CCOCC3)oc2c1C [8-Methyl-7-(2-methylsulfanyl-ethoxy)-2-morpholin-4-yl-chromen-4-one],14
19,"COC(=O)COc1ccc2c(=O)c(C)c(N3CCOCC3)oc2c1C [(3,8-Dimethyl-2-morpholin-4-yl-4-oxo-4H-chromen-7-yloxy)-acetic acid methyl ester]",59
20,COC(=O)COc1ccc2c(=O)cc(N3CCOCC3)oc2c1C [(8-Methyl-2-morpholin-4-yl-4-oxo-4H-chromen-7-yloxy)-acetic acid methyl ester],9

# From BindingDB's records for doi:10.1021/jm00066a012 (Upjohn Laboratories, 1993)
